What was measured:
[1] = target: T1, recombinant BACE1 protein (Homo sapiens, UniProt P56817); assay: Biochemical FRET based assay; conditions: recombinant BACE1 1 μg/ml, 120 min, room temperature, pH 5.0; for IC50: read-out: Biochemical FRET based assay pIC50 (converted)
T1 construct: recombinant BACE1 protein in a final concentration of 1 μg/ml
From the text: Biochemical FRET Based Assay This assay is a Fluorescence Resonance Energy Transfer Assay (FRET) based assay. The substrate for this assay is an APP derived 13 amino acids peptide that contains the 'Swedish' […] mutation of the amyloid precursor protein (APP) β-secretase cleavage site. […] Upon cleavage by BACE1, the fluorophore Mca is separated from the quenching group Dnp, restoring the full fluorescence yield of the donor. The increase in fluorescence is linearly related to the rate of proteolysis (Koike H et al. J Biochem. 1999, 126, 235-42). Briefly in a 384-well format recombinant BACE1 protein in a final concentration of 1 μg/ml is incubated for 120 minutes at room temperature with 10 μm substrate in incubation buffer (40 mM Citrate buffer pH 5.0, 0.04% PEG, 4% DMSO) in the absence or presence of compound. Next the amount of proteolysis is directly measured by fluorescence measurement at T=0 and T=120 (excitation at 320 nm and emission at 405 nm). […] [formula]

[2] = system: Aβ42 produced and secreted into the medium of human neuroblastoma SKNBE2 cells; assay: Cellular αlisa assay in SKNBE2 cells, Aβ42; assay type: cell-based; conditions: SKNBE2 cells expressing hAPP695, 18 hours incubation; for IC50: Homo sapiens, SKNBE2, 18 h, read-out: Cellular αlisa assay in SKNBE2 cells Aβ42 pIC50 (converted)
Experimental: (§1) Cellular αlisa Assay in SKNBE2 Cells In two αlisa assays the levels of Aβtotal and Aβ42 produced and secreted into the medium of human neuroblastoma SKNBE2 cells are quantified. The assay is based on the human neuroblastoma SKNBE2 expressing the wild type Amyloid Precursor Protein (hAPP695). […] Aβtotal and Aβ42 are measured by sandwich α[…] sandwich assay using biotinylated antibody AbN/25 attached to streptavidin coated beads and antibody Ab4G8 or cAb42/26 conjugated acceptor beads for the detection of Aβtotal and Aβ42 respectively. In the presence of Aβtotal or Aβ42, the beads come into close proximity. The excitation of the Donor beads provokes the release of singlet oxygen molecules that triggers a cascade of energy transfer in the Acceptor beads, resulting in light emission. Light emission is measured after 1 hour incubation (excitation at […] and emission at 615 nm). A best-fit curve is fitted by a minimum sum of squares method to the plot of % Controlmin versus compound concentration. […] [formula]

[3] = system: Aβtotal produced and secreted into the medium of human neuroblastoma SKNBE2 cells; assay: Cellular αlisa assay in SKNBE2 cells, Aβtotal; assay type: cell-based; conditions: SKNBE2 cells expressing hAPP695, 18 hours incubation; for IC50: Homo sapiens, SKNBE2, 18 h, read-out: Cellular αlisa assay in SKNBE2 cells Aβtotal pIC50 (converted)
Experimental: as §1

[4] = system: brain levels of soluble Aβ42; assay: In vivo efficacy: brain Aβ42 lowering (ELISA); set-up: species or system mouse; conditions: 30 mpk, sc
From the text: (§2) To determine whether acute administration of an Aβ42 peptide lowering agent would reduce Aβ peptide levels in vivo, non-transgenic rodents, e.g. mice or rats were used. Animals treated with the Aβ peptide lowering agent were examined and compared to those untreated or treated with vehicle and brain levels of soluble Aβ42 and total Aβ were quantitated by standard techniques, for example, using ELISA. Treatment periods varied from hours (h) to days and were adjusted based on the results of the Aβ42 lowering once a time course of onset of effect could be established.
(§3) A typical protocol for measuring Aβ42 lowering in vivo is shown but it is only one of many variations that could be used to optimize the levels of detectable Aβ. For example, Aβ peptide lowering compounds were formulated in 20% hydroxypropyl β cyclodextrin. The Aβ peptide lowering agents were administered as a single oral dose (p.o.) or a single subcutaneous dose (s.c.) to overnight fasted animals. After a certain time, usually 2 or 4 h (as indicated in Table 19), the animals were sacrificed and Aβ42 levels were analysed.
(§4) Blood was collected by decapitation and exsanguinations in EDTA-treated collection tubes. […] The left hemisphere was stored at −18° C. for quantitative analysis of test compound levels. […]
(§5) Mouse brains from non-transgenic animals were resuspended in 8 volumes of 0.4% DEA (diethylamine)/50 mM NaCl containing protease inhibitors (Roche-11873580001 or 04693159001) per gram of tissue, e.g. for 0.158 g brain, add 1.264 ml of 0.4% DEA. […] Nine parts of supernatant were neutralized with 1 part 0.5 M Tris-HCl pH 6.8 and used to quantify Aβtotal and Aβ42.
(§6) To quantify the amount of Aβtotal and Aβ42 in the soluble fraction of the brain homogenates, Enzyme-Linked-Immunosorbent-Assays were used. […] Following this incubation and subsequent wash steps the ELISA for Aβ42 quantification was finished by addition of Quanta Blu fluorogenic peroxidase substrate according to the manufacturer's instructions (Pierce Corp., Rockford, Ill.). A reading was performed after 10 to 15 min (excitation 320 nm/emission 420 nm).

[5] = system: brain levels of total Aβ; assay: In vivo efficacy: brain Aβtotal lowering (ELISA); set-up: species or system mouse; conditions: 30 mpk, sc
From the text: as §2, §3, §4, §5
as §6, with “nm). […]” for “nm).”

T1 sequence (P56817 46-501): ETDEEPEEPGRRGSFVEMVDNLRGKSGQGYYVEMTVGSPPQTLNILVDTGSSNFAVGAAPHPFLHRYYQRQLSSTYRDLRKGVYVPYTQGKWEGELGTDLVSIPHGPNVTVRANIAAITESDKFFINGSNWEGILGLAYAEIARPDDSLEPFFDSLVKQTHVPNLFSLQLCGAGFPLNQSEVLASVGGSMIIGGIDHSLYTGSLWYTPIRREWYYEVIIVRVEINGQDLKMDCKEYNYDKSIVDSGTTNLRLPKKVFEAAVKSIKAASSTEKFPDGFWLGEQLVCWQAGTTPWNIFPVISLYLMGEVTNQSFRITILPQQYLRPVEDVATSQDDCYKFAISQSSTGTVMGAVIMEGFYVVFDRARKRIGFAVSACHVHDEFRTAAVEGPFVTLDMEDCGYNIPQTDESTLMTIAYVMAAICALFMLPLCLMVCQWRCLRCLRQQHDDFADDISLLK

| Compound | IC50 [1] | IC50 [2] | IC50 [3] | melting point | Cellular αlisa assay in SKNBE2 cells Aβ42 pIC50 [2] | Cellular αlisa assay in SKNBE2 cells Aβtotal pIC50 [3] | also measured |
| --- | --- | --- | --- | --- | --- | --- | --- |
| COc1cncc(-c2cccc(C3(C)N=C(N)Cn4nccc43)c2)c1 (racemic) [Compound 2, rac-4-[3-(5-methoxypyridin-3-yl)-phenyl]-4-methyl-4,7-dihydropyrazolo[1,5-a]pyrazin-6-amine] | 1660 nM | 112 nM | 105 nM | 191.8 °C |  |  | Aβ42 (% Ctrl)_Mean ([4]; 4 h after administration): 109 % Ctrl; Aβtotal (% Ctrl)_Mean ([5]; 4 h after administration): 116 % Ctrl |
| CC1(c2cc(-c3cncnc3)c(F)cc2F)N=C(N)Cn2nccc21 (racemic) [Compound 4, rac-4-(2,4-difluoro-5-pyrimidin-5-yl-phenyl)-4-methyl-4,7-dihydropyrazolo[1,5-a]pyrazin-6-amine] | 8710 nM | 1070 nM | 1050 nM | 207 °C |  |  |  |
| COc1cncc(-c2cccc(C3(C)N=C(N)Cn4nc(C(F)(F)F)cc43)c2)c1 (racemic) [Compound 21, rac-4-[3-(5-methoxypyridin-3-yl)-phenyl]-4-methyl-2-(trifluoromethyl)-4,7-dihydropyrazolo[1,5-a]pyrazin-6-amine] |  |  |  | 89.3 °C |  |  |  |
| CC1(c2cc(-c3cncc(Cl)c3)ccc2F)N=C(N)Cn2nc(C(F)(F)F)cc21 (racemic) [Compound 24, rac-4-[5-(5-chloropyridin-3-yl)-2-fluorophenyl]-4-methyl-2-(trifluoromethyl)-4,7-dihydropyrazolo[1,5-a]pyrazin-6-amine] |  |  |  | 175.2 °C |  |  |  |
| CC1(c2cc(NC(=O)c3ncc(Cl)cc3Cl)ccc2F)N=C(N)Cn2nc(C(F)(F)F)cc21 (racemic) [Compound 27, rac-N-{3-[6-amino-4-methyl-2-(trifluoromethyl)-4,7-dihydropyrazolo[1,5-a]pyrazin-4-yl]-4-fluorophenyl}-3,5-dichloropyridine-2-carboxamide] |  |  |  | 198 °C |  |  |  |
| CC1(c2cc(NC(=O)c3ccc(Cl)cn3)ccc2F)N=C(N)Cn2nccc21 (single isomer, unassigned) [Compound 10, (S*)—N-[3-(6-Amino-4-methyl-4,7-dihydropyrazolo[1,5-a]pyrazin-4-yl)-4-fluorophenyl]-5-chloropyridine-2-carboxamide] | > 30200 nM |  |  | 199 °C | 5.41 | 5.44 |  |
| CC1(c2cc(NC(=O)c3ccc(Cl)cn3)ccc2F)N=C(N)Cn2nccc21 (single isomer, unassigned) [Compound 11, (R*)—N-[3-(6-amino-4-methyl-4,7-dihydropyrazolo[1,5-a]pyrazin-4-yl)-4-fluorophenyl]-5-chloropyridine-2-carboxamide] | 42.7 nM |  |  |  | 8.36 | 8.37 | Aβ42 (% Ctrl)_Mean ([4]; 4 h after administration): 71 % Ctrl; Aβtotal (% Ctrl)_Mean ([5]; 4 h after administration): 80 % Ctrl |
| COc1cccc(-c2cccc([C@@]3(C)N=C(N)Cn4nccc43)c2)c1 [Compound 7, (R)-4-(3′-methoxybiphenyl-3-yl)-4-methyl-4,7-dihydropyrazolo[1,5-a]pyrazin-6-amine] |  |  |  | 153.8 °C |  |  |  |
| CC1(c2cccc(-c3cc(Cl)cc(Cl)c3)c2)N=C(N)Cn2nccc21 (centres unmarked) [Compound 20] |  |  |  |  | 6.33 | 6.37 | Biochemical FRET based assay pIC50 [1]: 6.76; Aβ42 (% Ctrl)_Mean ([4]; 2 h after administration): 86 % Ctrl; Aβtotal (% Ctrl)_Mean ([5]; 2 h after administration): 80 % Ctrl |
| CC1(c2cc(-c3cncc(Cl)c3)ccc2F)N=C(N)Cn2nc(C(F)(F)F)cc21 (stereo not drawn) [Compound 24, rac-4-[5-(5-chloropyridin-3-yl)-2-fluorophenyl]-4-methyl-2-(trifluoromethyl)-4,7-dihydropyrazolo[1,5-a]pyrazin-6-amine] | 7240 nM | 5890 nM | 5370 nM |  |  |  |  |
| CC1(c2cc(NC(=O)c3ncc(Cl)cc3Cl)ccc2F)N=C(N)Cn2nc(C(F)(F)F)cc21 (stereo not drawn) [Compound 27, rac-N-{3-[6-amino-4-methyl-2-(trifluoromethyl)-4,7-dihydropyrazolo[1,5-a]pyrazin-4-yl]-4-fluorophenyl}-3,5-dichloropyridine-2-carboxamide] | 145 nM | 170 nM | 170 nM |  |  |  |  |
| NC1=N[C@@](c2cc(NC(=O)c3ncc(Cl)cc3F)ccc2F)(C2CC2)c2ccnn2C1 [Compound 33, (R)—N-{3-[6-amino-4-cyclopropyl-4,7-dihydropyrazolo[1,5-a]pyrazin-4-yl]-4-fluorophenyl}-5-chloro-3-fluoropyridine-2-carboxamide] | 309 nM | 25.7 nM | 20.9 nM | 272.6 °C |  |  |  |
| COc1cnc(C(=O)Nc2ccc(F)c(C3(C4CC4)N=C(N)Cn4nccc43)c2)cn1 (centres unmarked) [Compound 34] |  |  |  |  | 7.11 | 7.19 | Biochemical FRET based assay pIC50 [1]: 6.51 |

Reference: patent US8609660B2, “4,7-dihydro-pyrazolo[1,5-a]pyrazin-6-ylamine derivatives useful as inhibitors of beta-secretase (BACE)” (Janssen Pharmaceutica NV, priority 2010, dated 2013)
